Reference: US8604016B2, “Heterocyclic inhibitors of glutaminase” (Calithera Biosciences Inc., priority 2011, dated 2013)

Target: recombinant form of Glutaminase 1 (GAC) (Homo sapiens, UniProt O94925)
Assay: Recombinant Enzyme Assay (GAC coupled to GDH, NADH absorbance, no preincubation)
Format: biochemical
Details: no preincubation; read-out: GAC Delta N2 IC50 no preinc
Protocol: Enzymatic reaction was started with the addition of 50 μL of enzyme solution (50 mM Tris-HCl pH 8.0, 0.2 mM EDTA, 150 mM K2HPO4, 0.1 mg/ml BSA, 1 mM DTT, 10 ppm antifoam, 4 units/ml GDH, 4 mM adenosine diphosphate, and 4 nM GAC) and read in a Molecular Devices M5 plate reader at 20° C. The plate reader was configured to read absorbance (λ=340 nm) in kinetic mode for 15 minutes. Data was recorded as milli-absorbance units per minute and slopes were compared to a control compound and a DMSO-only control on the same plate. Compounds with slopes less than the DMSO control were considered inhibitors and plate variability was assessed using the control compound.

**Q.** `CC(C)(C)OC(=O)N1CCCC(CC(=O)Nc2nnc(CCSCCc3nnc(NC(=O)CC4CCCN(C(=O)OC(C)(C)C)C4)s3)s2)C1` (stereo not shown) [Compound 112] was tested. Which IC50 did it give?
**A.** The IC50 was 0.51 µM.

**Q.** `CC(C)(C)OC(=O)NC(C(=O)Nc1nnc(CCCCc2nnc(NC(=O)C(NC(=O)OC(C)(C)C)C3CCCC3)s2)s1)C1CCCC1` (stereo not shown) [Compound 113] was tested. Which IC50 did it give?
**A.** The IC50 was greater than 20 µM.

**Q.** Which IC50 does the source give for `CC(C)(C)OC(=O)N1CCC(CC(=O)Nc2nnc(CCCCc3nnc(NC(=O)CC4CCN(C(=O)OC(C)(C)C)CC4)s3)s2)CC1` [Compound 114] here?
**A.** The IC50 was 0.6 µM.

**Q.** With `CC(C)(C)OC(=O)N1CCCC(CC(=O)Nc2nnc(CCCCc3nnc(NC(=O)CC4CCCN(C(=O)OC(C)(C)C)C4)s3)s2)C1` (stereo not shown) [Compound 115] as the compound, how does the IC50 read?
**A.** Its IC50 is 0.62 µM.

**Q.** With `O=C(Cc1cccs1)Nc1nnc(CCSCCc2nnc(NC(=O)Cc3cccs3)s2)s1` [Compound 116] as the compound, how does the IC50 read?
**A.** Its IC50 is 0.24 µM.

**Q.** Which IC50 does the source give for `COc1ccc2c(c1)CC(C(=O)Nc1nnc(CCSCCc3nnc(NC(=O)C4Cc5cc(OC)ccc5O4)s3)s1)O2` (stereo not shown) [Compound 117] here?
**A.** Its IC50 is 2.4 µM.

**Q.** For `O=C(Nc1nnc(CCSCCc2nnc(NC(=O)C3Cc4cc(Br)ccc4O3)s2)s1)C1Cc2cc(Br)ccc2O1` (stereo not shown) [Compound 118], which IC50 is on record?
**A.** Its IC50 is 5 µM.

**Q.** Which IC50 does the source give for `CC1(C(=O)Nc2nnc(CCSCCc3nnc(NC(=O)C4(C)CCCO4)s3)s2)CCCO1` (stereo not shown) [Compound 119] here?
**A.** Its IC50 is greater than 20 µM.

**Q.** With `O=C(Nc1nnc(CCCCc2nnc(NC(=O)C3Cc4cc(Cl)ccc4O3)s2)s1)C1Cc2cc(Cl)ccc2O1` (stereo not shown) [Compound 120] as the compound, how does the IC50 read?
**A.** Its IC50 is 1.8 µM.

**Q.** For `COc1ccc2c(c1)CC(C(=O)Nc1nnc(CCCCc3nnc(NC(=O)C4Cc5cc(OC)ccc5O4)s3)s1)O2` (stereo not shown) [Compound 121], which IC50 is on record?
**A.** Its IC50 is 1.7 µM.

**Q.** Which IC50 does the source give for `O=C(Nc1nnc(CCCCc2nnc(NC(=O)C3Cc4cc(Br)ccc4O3)s2)s1)C1Cc2cc(Br)ccc2O1` (stereo not shown) [Compound 122] here?
**A.** Its IC50 is 3.5 µM.

**Q.** With `CC1(C(=O)Nc2nnc(CCCCc3nnc(NC(=O)C4(C)CCCO4)s3)s2)CCCO1` (stereo not shown) [Compound 123] as the compound, how does the IC50 read?
**A.** The IC50 was 12 µM.

**Q.** With `O=C(CC1CCCNC1)Nc1nnc(CCSCCc2nnc(NC(=O)CC3CCCNC3)s2)s1` (stereo not shown) [Compound 124] as the compound, how does the IC50 read?
**A.** The IC50 was greater than 20 µM.

**Q.** Which IC50 does the source give for `NC(C(=O)Nc1nnc(CCSCCc2nnc(NC(=O)C(N)C3CCCC3)s2)s1)C1CCCC1` (stereo not shown) [Compound 125] here?
**A.** The IC50 was greater than 20 µM.

**Q.** `O=C(C[C@@H](O)c1ccccc1)Nc1nnc(CCCCc2nnc(NC(=O)C[C@@H](O)c3ccccc3)s2)s1` [Compound 127] was tested. Which IC50 did it give?
**A.** Its IC50 is 1.8 µM.

**Q.** With `CC(=O)N[C@@H](C(=O)Nc1nnc(CCSCCc2nnc(NC(=O)[C@H](NC(C)=O)c3ccccc3)s2)s1)c1ccccc1` [Compound 128] as the compound, how does the IC50 read?
**A.** Its IC50 is 32 µM.

**Q.** For `O=C(CC1CCNCC1)Nc1nnc(CCSCCc2nnc(NC(=O)CC3CCNCC3)s2)s1` [Compound 129], which IC50 is on record?
**A.** The IC50 was greater than 20 µM.

**Q.** For `O=C(CC1CCCNC1)Nc1nnc(CCCCc2nnc(NC(=O)CC3CCCNC3)s2)s1` (stereo not shown) [Compound 130], which IC50 is on record?
**A.** Its IC50 is greater than 20 µM.

**Q.** For `NC(C(=O)Nc1nnc(CCCCc2nnc(NC(=O)C(N)C3CCCC3)s2)s1)C1CCCC1` (stereo not shown) [Compound 131], which IC50 is on record?
**A.** The IC50 was 19 µM.

**Q.** `O=C(CC1CCNCC1)Nc1nnc(CCCCc2nnc(NC(=O)CC3CCNCC3)s2)s1` [Compound 132] was tested. Which IC50 did it give?
**A.** Its IC50 is greater than 20 µM.

**Q.** How did the IC50 turn out when `O=C(Nc1nnc(CCSCCc2nnc(NC(=O)C3Oc4ccccc4O3)s2)s1)C1Oc2ccccc2O1` [Compound 134] was run?
**A.** Its IC50 is 14 µM.

**Q.** `O=C(Nc1nnc(CCCCc2nnc(NC(=O)C3Oc4ccccc4O3)s2)s1)C1Oc2ccccc2O1` [Compound 136] was tested. Which IC50 did it give?
**A.** Its IC50 is 7 µM.

**Q.** How did the IC50 turn out when `N[C@@H](CO)C(=O)Nc1nnc(CCSCCc2nnc(NC(=O)[C@@H](N)CO)s2)s1` [Compound 137] was run?
**A.** Its IC50 is greater than 20 µM.

**Q.** Which IC50 does the source give for `C[C@@H](O)[C@H](N)C(=O)Nc1nnc(CCSCCc2nnc(NC(=O)[C@@H](N)[C@@H](C)O)s2)s1` [Compound 139] here?
**A.** Its IC50 is greater than 20 µM.

**Q.** Which IC50 does the source give for `N[C@@H](CO)C(=O)Nc1nnc(CCCCc2nnc(NC(=O)[C@@H](N)CO)s2)s1` [Compound 140] here?
**A.** Its IC50 is 3.4 µM.

**Q.** How did the IC50 turn out when `CC[C@](O)(C(=O)Nc1nnc(CCSCCc2nnc(NC(=O)[C@@](O)(CC)c3ccccc3)s2)s1)c1ccccc1` [Compound 141] was run?
**A.** Its IC50 is 1.7 µM.

**Q.** For `CC[C@@](O)(C(=O)Nc1nnc(CCSCCc2nnc(NC(=O)[C@](O)(CC)c3ccccc3)s2)s1)c1ccccc1` [Compound 142], which IC50 is on record?
**A.** The IC50 was greater than 20 µM.

**Q.** `CC[C@](O)(C(=O)Nc1nnc(CCCCc2nnc(NC(=O)[C@@](O)(CC)c3ccccc3)s2)s1)c1ccccc1` [Compound 143] was tested. Which IC50 did it give?
**A.** Its IC50 is 0.57 µM.
